Experimental data published in patent publication US20100144708A1, “HETEROCYCLIC COMPOUNDS CONTAINING NITROGEN ATOMS OR PHARMACEUTICALLY ACCEPTABLE SALTS THEREOF, PROCESS FOR THE PREPARATION THEREOF AND PHARMACEUTICAL COMPOSITION COMPRISING THE SAME FOR TREATMENT OF CANCER” (Korea Research Instititute of Bioscience and Biotechnology, priority 2006, published 2010).

Assays:
Format in all cases: cell-based, Human
[1] = tested on: PC-3 (prostate cancer); assay: Test for inhibition of tumor cell growth (SRB), PC-3; conditions: 48 hours, SRB staining; for GI50: Homo sapiens, read-out: GI50 PC-3 (prostate ancer)
Procedure: (§1) Human tumor cell lines, PC-3 (prostate cancer, ATCC, USA), MBA-MB-231 (breast cancer, ATCC, USA), ACHN (kidney cancer, ATCC, USA), and NUGC-3 (gastric cancer, ATCC, USA) were cultured in RPMI 1640 media containing 10% fetal bovine serum (FBS).
(§2) In order to measure anticancer activity, a suitable concentration of cells in RPMI 1640 media containing 5% fetal bovine serum (about 5×10^4 cells/□) was aliquotted in 96-well plates, and cultured in 5% CO2 at 37° C. On day one after aliquoting the cells, before the cells were treated with the compounds, in order to determine their concentration, 50[…] of 50% trichloroacetic acid was added to each well of time zero (T0) plate, and cells were fixed to determine zero point. The cells treated with the compounds were fixed on each well having 50[…] of 50% trichloroacetic acid after 48 hours. The final concentrations of the test compounds were 0.01, 0.03, 0.1, 0.3, and 1[…]/□. The fixed plate was washed with water and dried, and then 100[…] of 0.4% sulphorhodamine B (SRB) dissolved in 0.1% acetic acid was added to the each well to stain the cells. The plate was allowed to stand for 30 minutes, and then washed with 0.1% acetic acid. Then, the plate was dried at room temperature, and treated with 10 mM tris base (pH 10.5) to dissolve staining reagent. An absorbance measured at 540 nm was calculated as a percentage of the control group, and then the concentration of the compound that inhibited tumor cell growth (GI50(□/□)) by 50% was determined.

[2] = tested on: MBA-MB-231 (breast cancer); assay: Test for inhibition of tumor cell growth (SRB), MBA-MB-231; conditions: 48 hours, SRB staining; for GI50: Homo sapiens
Procedure: as §1, §2

[3] = tested on: ACHN (kidney cancer); assay: Test for inhibition of tumor cell growth (SRB), ACHN; conditions: 48 hours, SRB staining; for GI50: Homo sapiens, ACHN
Procedure: as §1, §2

[4] = tested on: NUGC-3 (gastric cancer); assay: Test for inhibition of tumor cell growth (SRB), NUGC-3; conditions: 48 hours, SRB staining; for GI50: Homo sapiens, NUGC-3
Procedure: as §1, §2

1-(4-fluorobenzyl)-1-methyl-4-(octane-1-sulfonyppiperazin-1-ium bromide [Example 63]
GI50 PC-3 (prostate ancer) [1]: >10 µg/mL
GI50 MBA-MB-231 (breast cancer) [2]: >10 µg/mL
GI50 ACHN (kidney cancer) [3]: >10 µg/mL
GI50 NUGC-3 (gastric cancer) [4]: >10 µg/mL

1-allyl-1-methyl-4-(tetradecane-1-sulfonyppiperazin-1-ium bromide [Example 69]
GI50 PC-3 (prostate ancer) [1]: 0.68 µg/mL
GI50 MBA-MB-231 (breast cancer) [2]: 1.16 µg/mL
GI50 ACHN (kidney cancer) [3]: 0.59 µg/mL
GI50 NUGC-3 (gastric cancer) [4]: 0.59 µg/mL

1-ethyl-1-(3-nitrobenzyl)-4-tetradecanoylpiperazin-1-him bromide [Example 56]
GI50 PC-3 (prostate ancer) [1]: 0.52 µg/mL
GI50 MBA-MB-231 (breast cancer) [2]: 1.13 µg/mL
GI50 ACHN (kidney cancer) [3]: 1.93 µg/mL
GI50 NUGC-3 (gastric cancer) [4]: 1.22 µg/mL

CCCCCCCCCCCCCCCCCCCCCC(=O)N1CC[N+](C)(C)CC1 [Example 1, 4-docosanoyl-1,1-dimethylpiperazin-1-ium iodide]
GI50 [1]: 0.99 µg/mL
GI50 [2]: 3.51 µg/mL
GI50 [3]: 2.39 µg/mL
GI50 [4]: 1.15 µg/mL

CCCCCCCC(=O)N1CC[N+](C)(C)CC1.[I-] [Example 2, 1,1-dimethyl-4-octanoyl-piperazin-1-ium iodide]
GI50 [1]: > 10 µg/mL
GI50 [2]: > 10 µg/mL
GI50 [3]: > 10 µg/mL
GI50 [4]: > 10 µg/mL

CCCCCCCC(=O)N1CC[N+](C)(Cc2ccccc2)CC1.[Br-] [Example 3, 1-benzyl-1-methyl-4-octanoyl-piperazin-1-ium bromide]
GI50 [1]: > 10 µg/mL
GI50 [2]: > 10 µg/mL
GI50 [3]: > 10 µg/mL
GI50 [4]: > 10 µg/mL

C=CC[N+]1(C)CCN(C(=O)CCCCCCC)CC1.[Br-] [Example 4, 1-allyl-1-methyl-4-octanoyl-piperazin-1-ium bromide]
GI50 [1]: > 10 µg/mL
GI50 [2]: > 10 µg/mL
GI50 [3]: > 10 µg/mL
GI50 [4]: > 10 µg/mL

CCCCCCCC(=O)N1CC[N+](C)(Cc2ccc(OC)cc2)CC1.[Cl-] [Example 5, 1-(4-methoxy-benzyl)-1-methyl-4-octanoyl-piperazin-1-ium chloride]
GI50 [1]: > 10 µg/mL
GI50 [2]: > 10 µg/mL
GI50 [3]: > 10 µg/mL
GI50 [4]: > 10 µg/mL

CCCCCCCC(=O)N1CC[N+](C)(CC)CC1.[I-] [Example 6, 1-ethyl-1-methyl-4-octanoyl-piperazin-1-ium iodide]
GI50 [1]: > 10 µg/mL
GI50 [2]: > 10 µg/mL
GI50 [3]: > 10 µg/mL
GI50 [4]: > 10 µg/mL

CCCCCCCC(=O)N1CC[N+](CC)(Cc2ccccc2)CC1.[Br-] [Example 7, 1-benzyl-1-ethyl-4-octanoyl-piperazin-1-ium bromide]
GI50 [1]: > 10 µg/mL
GI50 [2]: > 10 µg/mL
GI50 [3]: > 10 µg/mL
GI50 [4]: > 10 µg/mL

CCCCCCCCCC(=O)N1CC[N+](C)(Cc2ccccc2)CC1 [Example 8, 1-benzyl-4-decanoyl-1-methyl-piperazin-1-ium bromide]
GI50 [1]: 0.8 µg/mL
GI50 [2]: > 10 µg/mL
GI50 [3]: > 10 µg/mL
GI50 [4]: > 10 µg/mL

C=CC[N+]1(C)CCN(C(=O)CCCCCCCCC)CC1 [Example 9, 1-allyl-4-decanoyl-1-methyl-piperazin-1-ium bromide]
GI50 [1]: 1.81 µg/mL
GI50 [2]: > 10 µg/mL
GI50 [3]: > 10 µg/mL
GI50 [4]: > 10 µg/mL

CCCCCCCCCC(=O)N1CC[N+](CC)(Cc2ccccc2)CC1 [Example 10, 1-benzyl-4-decanoyl-1-ethyl-piperazin-1-ium bromide]
GI50 [1]: > 10 µg/mL
GI50 [2]: > 10 µg/mL
GI50 [3]: > 10 µg/mL
GI50 [4]: > 10 µg/mL

C=CC[N+]1(CC)CCN(C(=O)CCCCCCCCC)CC1 [Example 11, 1-allyl-4-decanoyl-1-ethylpiperazin-1-ium bromide]
GI50 [1]: 3.07 µg/mL
GI50 [2]: > 10 µg/mL
GI50 [3]: > 10 µg/mL
GI50 [4]: > 10 µg/mL

CCCCCCCCCC(=O)N1CC[N+](C)(CC)CC1 [Example 12, 4-decanoyl-1-ethyl-1-methylpiperazin-1-ium iodide]
GI50 [1]: > 10 µg/mL
GI50 [2]: > 10 µg/mL
GI50 [3]: > 10 µg/mL
GI50 [4]: > 10 µg/mL

C=CC[N+]1(C)CCN(C(=O)CCCCCCCCCCCCC)CC1 [Example 13, 1-allyl-1-methyl-4-tetradecanoyl-piperazin-1-ium bromide]
GI50 [1]: 0.3 µg/mL
GI50 [2]: 1.29 µg/mL
GI50 [3]: > 10 µg/mL
GI50 [4]: 0.5 µg/mL

CCCCCCCCCCCCCC(=O)N1CC[N+](C)(CC)CC1 [Example 14, 1-ethyl-1-methyl-4-tetradecanoyl-piperazin-1-ium iodide]
GI50 [1]: 0.57 µg/mL
GI50 [2]: 2.44 µg/mL
GI50 [3]: 2.37 µg/mL
GI50 [4]: 0.54 µg/mL

CCCCCCCCCCCCCC(=O)N1CC[N+](CC)(Cc2ccccc2)CC1 [Example 15, 1-benzyl-1-ethyl-4-tetradecanoyl-piperazin-1-ium bromide]
GI50 [1]: 1.42 µg/mL
GI50 [2]: > 10 µg/mL
GI50 [3]: > 10 µg/mL
GI50 [4]: 2.07 µg/mL

C=CC[N+]1(CC)CCN(C(=O)CCCCCCCCCCCCC)CC1 [Example 16, 1-allyl-1-ethyl-4-tetradecanoyl-piperazin-1-ium bromide]
GI50 [1]: 0.41 µg/mL
GI50 [2]: 2.49 µg/mL
GI50 [3]: 4.26 µg/mL
GI50 [4]: 0.76 µg/mL

C=CC[N+]1(C)CCN(C(=O)CCCCCCCCCCCCCCC)CC1.[Br-] [Example 17, 1-allyl-4-hexadecanoyl-1-methyl-piperazin-1-ium bromide]
GI50 [1]: 0.46 µg/mL
GI50 [2]: 1.28 µg/mL
GI50 [3]: 1.14 µg/mL
GI50 [4]: 0.47 µg/mL

CCCCCCCCCCCCCCCC(=O)N1CC[N+](C)(Cc2ccc(OC)cc2)CC1.[Cl-] [Example 18, 4-hexadecanoyl-1-(4-methoxy-benzyl)-1-methyl-piperazin-1-ium chloride]
GI50 [1]: 0.49 µg/mL
GI50 [2]: 0.92 µg/mL
GI50 [3]: 1.31 µg/mL
GI50 [4]: 1.16 µg/mL

C=CCCC[N+]1(C)CCN(C(=O)CCCCCCCCCCCCCCC)CC1.[Br-] [Example 19, 4-hexadecanoyl-1-methyl-1-pent-4-enyl-piperazin-1-ium bromide]
GI50 [1]: 0.55 µg/mL
GI50 [2]: 1.7 µg/mL
GI50 [3]: 1.69 µg/mL
GI50 [4]: 0.63 µg/mL

C=CCC[N+]1(C)CCN(C(=O)CCCCCCCCCCCCCCC)CC1.[Br-] [Example 20, 1-but-3-enyl-4-hexadecanoyl-1-methyl-piperazin-1-ium bromide]
GI50 [1]: 0.67 µg/mL
GI50 [2]: 1.52 µg/mL
GI50 [3]: 1.58 µg/mL
GI50 [4]: 0.72 µg/mL

CCCCCCCCCCCCCCCC(=O)N1CC[N+](CC)(Cc2ccccc2)CC1.[Br-] [Example 21, 1-benzyl-1-ethyl-4-hexadecanoyl-piperazin-1-ium bromide]
GI50 [1]: 0.55 µg/mL
GI50 [2]: 1.16 µg/mL
GI50 [3]: 0.92 µg/mL
GI50 [4]: 0.46 µg/mL

C=CC[N+]1(CC)CCN(C(=O)CCCCCCCCCCCCCCC)CC1.[Br-] [Example 22, 1-allyl-1-ethyl-4-hexadecanoyl-piperazin-1-ium bromide]
GI50 [1]: 0.37 µg/mL
GI50 [2]: 0.68 µg/mL
GI50 [3]: 0.5 µg/mL
GI50 [4]: 0.27 µg/mL

CCCCCCCCCCCCCCCC(=O)N1CC[N+](C)(CC)CC1.[I-] [Example 23, 1-ethyl-4-hexadecanoyl-1-methyl-piperazin-1-ium iodide]
GI50 [1]: 0.8 µg/mL
GI50 [2]: 2.05 µg/mL
GI50 [3]: 1.89 µg/mL
GI50 [4]: 0.58 µg/mL

C=CCCC[N+]1(CC)CCN(C(=O)CCCCCCCCCCCCCCC)CC1.[Br-] [Example 24, 1-ethyl-4-hexadecanoyl-1-pent-4-enyl-piperazin-1-ium bromide]
GI50 [1]: 0.45 µg/mL
GI50 [2]: 0.76 µg/mL
GI50 [3]: 0.78 µg/mL
GI50 [4]: 0.4 µg/mL
